The values that follow are results of earlier work, collected in patent US20210251559A1, “METHODS FOR DIAGNOSING, MONITORING AND TREATING NEUROLOGICAL DISEASES AND DISORDERS” (CuraSen Therapeutics, Inc., priority 2018, published 2021).

The test system of this data set is Ts65Dn mice. The note with it: increasing brain NE levels.

For `N[C@H](C(=O)O)[C@H](O)c1ccc(O)c(O)c1` [L-DOPS, L-threo-3,4-dihydroxyphenylserine], the contextual learning result is given as “restored contextual learning”.
